Measured values as given in patent publication US12377104B1, “Methods for treating a fatty liver disease” (Madrigal Pharmaceuticals, Inc., priority 2024, dated 2025).

Assays:
[1] = system: adults with biopsy-confirmed NASH; assay: 36-week Phase 2 serial MRI-PDFF and liver biopsy study: liver volume and PDFF; assay type: in vivo, human
Experimental: Hepatomegaly may cause symptoms (e.g., pain) in NASH patients, and is thought to be driven primarily by high liver fat content. […] This study was to assess the relationship between liver triglycerides as measured by MRI-PDFF and liver volume (LV) in placebo and resmetirom-treated patients.
LV was assessed using a validated artificial intelligence model for segmenting the liver on standard MR images.
LV at baseline was elevated in non-cirrhotic and cirrhotic NASH patients relative to literature values for healthy controls and was greater than predicted even after accounting for sex and body weight. PDFF correlated with LV at baseline in non-cirrhotic (r2=0.19, p<0.001) and more weakly in cirrhotic NASH (r2=0.079, p=0.01).

[2] = system: adults with biopsy-confirmed NASH; assay: MAESTRO-NASH: adverse events, serious adverse events, malignancies
From the text: Safety end points included adverse events, biochemical assessments, and clinical assessments. Selected serious adverse events (including deaths, cardiovascular events, and potential drug-induced liver injury) were adjudicated by independent, external event-adjudication committees whose members were unaware of the trial-group assignments.

[3] = 80 mg (n = 322), safety population

## CC(C)c1cc(Oc2c(Cl)cc(-n3nc(C#N)c(=O)[nH]c3=O)cc2Cl)n[nH]c1=O [Resmetirom, 2-(3,5-dichloro-4-((5-isopropyl-6-oxo-1,6-dihydropyridazin-3-yl)oxy)phenyl)-3,5-dioxo-2,3,4,5-tetrahydro-1,2,4-triazine-6-carbonitrile]
[1]; 12 weeks
  LV reduction (CFB): −18.6%
[1]; 36 weeks
  LV reduction (CFB): −20.5%
[1]; Week 12
  patients with ≥15% reduction in liver volume: 69.2%
[2]; 80 mg
  Adverse event leading to trial discontinuation before wk 52, number of patients: 6
  Adverse event leading to trial discontinuation during entire treatment period, number of patients: 9
  Adverse event leading to trial discontinuation during entire treatment period, percent of patients: (2.8) percent
  Arthralgia, number of patients: 48
  Arthralgia, percent of patients: (14.9) percent
  Back pain, number of patients: 35
  Back pain, percent of patients: (10.9) percent
  Cancer reported, patients: 1.2%
  Covid-19, number of patients: 69
  Covid-19, percent of patients: (21.4) percent
  Diarrhea, number of patients: 87
  Diarrhea, percent of patients: (27.0) percent
  Fatal adverse event, number of patients: 1
  Fatal adverse event, percent of patients: (0.3) percent
  Fatigue, number of patients: 33
  Fatigue, percent of patients: (10.2) percent
  Grade 1: mild, number of patients: 73
  Grade 1: mild, percent of patients: (22.7) percent
  Grade 2: moderate, number of patients: 180
  Grade 2: moderate, percent of patients: (55.9) percent
  Grade 3 or higher: severe, number of patients: 43
  Grade 3 or higher: severe, percent of patients: (13.4) percent
  Major adverse cardiovascular event, number of patients: 1
  Major adverse cardiovascular event, percent of patients: (0.3) percent
  Nausea, number of patients: 71
  Nausea, percent of patients: (22.0) percent
  Other cardiovascular event, number of patients: 0
  Pruritus, number of patients: 26
  Pruritus, percent of patients: (8.1) percent
  Urinary tract infection, number of patients: 33
  Urinary tract infection, percent of patients: (10.2) percent
  ≥1 Adverse event attributed to resmetirom, number of patients: 124
  ≥1 Adverse event attributed to resmetirom, percent of patients: (38.5) percent
  ≥1 Adverse event, number of patients: 296
  ≥1 Adverse event, percent of patients: (91.9) percent
  ≥1 Serious adverse event attributed to resmetirom, number of patients: 2
  ≥1 Serious adverse event attributed to resmetirom, percent of patients: (0.6) percent
  ≥1 Serious adverse event, number of patients: 35
[2]; 80 mg (N = 322)
  Malignancy: Basal cell carcinoma: 2 (0.6) n (%)
  Malignancy: Breast carcinoma: 1 (0.3) n (%)
  Malignancy: Malignant melanoma: 0 n (%)
  Malignancy: Skin cancer (squamous cell): 1 (0.3) n (%)
  Patients with any malignancy: 4 (1.2) n (%)
  Patients with at least one TE-SAEs: 35 (10.9) n (%)
  SAE: Acute Gallstone-related disorders: 3 (0.9) n (%)
  SAE: COVID-19: 1 (0.3) n (%)
  SAE: COVID-19 pneumonia: 2 (0.6) n (%)
  SAE: Cardiac disorders: 3 (0.9) n (%)
  SAE: Gastrointestinal disorders: 3 (0.9) n (%)
  SAE: General disorders and administration site conditions: 2 (0.6) n (%)
  SAE: Infections and infestations: 12 (3.7) n (%)
  SAE: Injury, poisoning and procedural complications: 3 (0.9) n (%)
  SAE: Musculoskeletal and connective tissue disorders: 7 (2.2) n (%)
  SAE: Nervous system disorders: 3 (0.9) n (%)
  SAE: Post procedural haemorrhage: 1 (0.3) n (%)
  SAE: Respiratory, thoracic and mediastinal disorders: 3 (0.9) n (%)
[2]; [3]
  Adverse event: Abdominal distension: 14 (4.3) no. (%)
  Adverse event: Abdominal pain: 23 (7.1) no. (%)
  Adverse event: Abdominal pain upper: 23 (7.1) no. (%)
  Adverse event: Constipation: 21 (6.5) no. (%)
  Adverse event: Cough: 14 (4.3) no. (%)
  Adverse event: Decreased appetite: 5 (1.6) no. (%)
  Adverse event: Dizziness: 20 (6.2) no. (%)
  Adverse event: Gastrooesophageal reflux disease: 16 (5.0) no. (%)
  Adverse event: Headache: 30 (9.3) no. (%)
  Adverse event: Hypertension: 16 (5.0) no. (%)
  Adverse event: Muscle spasms: 14 (4.3) no. (%)
  Adverse event: Nasopharyngitis: 14 (4.3) no. (%)
  Adverse event: Pain in extremity: 12 (3.7) no. (%)
  Adverse event: Procedural pain: 16 (5.0) no. (%)
  Adverse event: Rash: 12 (3.7) no. (%)
  Adverse event: Sinusitis: 10 (3.1) no. (%)
  Adverse event: Type 2 diabetes: 24 (7.5) no. (%)
  Adverse event: Upper respiratory tract infection: 23 (7.1) no. (%)
  Adverse event: Vomiting: 28 (8.7) no. (%)
[2]; 100 mg
  Adverse event leading to trial discontinuation before wk 52, number of patients: 22
  Adverse event leading to trial discontinuation during entire treatment period, number of patients: 25
